# From ChEMBL document CHEMBL4152293, “Synthesis and biological evaluation of podophyllotoxin derivatives as selective antitumor agents” (Eur J Med Chem, 2018)
# Active and inactive are the calls of the source. No cut-off for these calls is given here.
# Legend:
# A549 [1] = test: Cytotoxicity against human A549 cells assessed as growth inhibition after 72 hrs by MTT assay; format: functional, cell-based; details: A549, 72 h
# L02 [2] = test: Cytotoxicity against human L02 cells assessed as growth inhibition after 72 hrs by MTT assay; format: cell-based; details: L02, 72 h
# HepG2 [3] = test: Cytotoxicity against human HepG2 cells assessed as growth inhibition after 72 hrs by MTT assay; format: functional, cell-based; details: HepG2, 72 h
# [4] = Selectivity index, ratio of IC50 for human L02 cells to IC50 for human A549 cells; format: toxicity; details: L02 cells versus A549 cells, read-out: Ratio IC50
# MCF7 [5] = test: Cytotoxicity against human MCF7 cells assessed as growth inhibition after 72 hrs by MTT assay; format: functional, cell-based; details: MCF7, 72 h
# A549 [6] = test: Potency index, ratio of doxorubicin IC50 to test compound IC50 for human A549 cells; format: functional
# A549 [7] = test: Potency index, ratio of VP-16 IC50 to test compound IC50 for human A549 cells; format: functional
# MCF7 [8] = test: Potency index, ratio of VP-16 IC50 to test compound IC50 for human MCF7 cells; format: functional
# MCF7 [9] = test: Potency index, ratio of doxorubicin IC50 to test compound IC50 for human MCF7 cells; format: functional
# A549 [10] = test: Induction of apoptosis in human A549 cells assessed as nuclear fragmentation at 10 to 30 nM after 72 hrs by DAPI staining-based fluorescence microscopic method; format: functional, cell-based
# L02 [11] = test: Induction of morphological changes in human L02 cells assessed as irregular shape at 10 to 30 nM after 72 hrs by DAPI staining-based fluorescence microscopic method; format: cell-based; details: l02, 72 h, 0.03 µM
# A549 [12] = test: Induction of apoptosis in human A549 cells assessed as decrease in cell number at 10 to 30 nM after 72 hrs by DAPI staining-based fluorescence microscopic method; format: functional
# L02 [13] = test: Induction of apoptosis in human L02 cells assessed as decrease in cell number at 10 to 30 nM after 72 hrs by DAPI staining-based fluorescence microscopic method; details: l02, 72 h, 0.03 µM
# A549 [14] = test: Induction of morphological changes in human A549 cells assessed as irregular shape at 10 to 30 nM after 72 hrs by DAPI staining-based fluorescence microscopic method; format: functional, cell-based
# L02 [15] = test: Induction of apoptosis in human L02 cells assessed as nuclear fragmentation at 10 to 30 nM after 72 hrs by DAPI staining-based fluorescence microscopic method; format: cell-based; details: l02, 72 h, 0.03 µM
# HepG2 [16] = test: Potency index, ratio of doxorubicin IC50 to test compound IC50 for human HepG2 cells; format: functional
# HepG2 [17] = test: Potency index, ratio of VP-16 IC50 to test compound IC50 for human HepG2 cells; format: functional
SMILES,IC50 (A549 [1]),IC50 (L02 [2]),IC50 (HepG2 [3]),IC50 (MCF7 [5]),also measured
COc1cc([C@@H]2c3cc4c(cc3[C@@H](O[C@@H]3O[C@@H]5CO[C@@H](C)O[C@H]5[C@H](O)[C@H]3O)[C@H]3COC(=O)[C@H]23)OCO4)cc(OC)c1O [ETOPOSIDE],9470 nM,3480 nM,> 50000 nM,4720 nM,selectivity ratio [4]: 0.5
COc1cc([C@@H]2c3cc4c(cc3[C@H](OC(=O)[C@@H]3CCCN3C(=O)c3nc(C)c(C)nc3C)[C@H]3COC(=O)[C@H]23)OCO4)cc(OC)c1OC,80.1 nM,132 nM,112 nM,122 nM,
COc1cc([C@@H]2c3cc4c(cc3[C@H](OC(=O)CNC(=O)OC(C)(C)C)[C@H]3COC(=O)[C@H]23)OCO4)cc(OC)c1OC,1.6 nM,7.3 nM,26.6 nM,11.3 nM,Ratio IC50 (A549 [6]): 140; Ratio IC50 (A549 [7]): 5900
COc1cc([C@@H]2c3cc4c(cc3[C@H](OC(=O)[C@H](C)NC(=O)c3nc(C)c(C)nc3C)[C@H]3COC(=O)[C@H]23)OCO4)cc(OC)c1OC,15.8 nM,25.5 nM,26.9 nM,15.6 nM,
COc1cc([C@@H]2c3cc4c(cc3[C@H](OC(=O)c3nc(C)c(C)nc3C)[C@H]3COC(=O)[C@H]23)OCO4)cc(OC)c1OC,76.9 nM,115 nM,57.8 nM,63.5 nM,
COc1cc([C@@H]2c3cc4c(cc3[C@H](OC(=O)[C@@H](N)CC(C)C)[C@H]3COC(=O)[C@H]23)OCO4)cc(OC)c1OC,14.7 nM,21.6 nM,27.1 nM,8.6 nM,
COc1cc([C@@H]2c3cc4c(cc3[C@H](OC(=O)CN)[C@H]3COC(=O)[C@H]23)OCO4)cc(OC)c1OC,12.9 nM,14.5 nM,17.5 nM,7.2 nM,Ratio IC50 (MCF7 [8]): 650; Ratio IC50 (MCF7 [9]): 10
CC[C@H](C)[C@H](NC(=O)c1nc(C)c(C)nc1C)C(=O)O[C@H]1c2cc3c(cc2[C@@H](c2cc(OC)c(OC)c(OC)c2)[C@H]2C(=O)OC[C@@H]21)OCO3,119 nM,420 nM,348 nM,988 nM,
COc1cc([C@@H]2c3cc4c(cc3[C@H](OC(=O)[C@@H]3CCCN3C(=O)OC(C)(C)C)[C@H]3COC(=O)[C@H]23)OCO4)cc(OC)c1OC,148 nM,396 nM,246 nM,277 nM,
COc1cc([C@@H]2c3cc4c(cc3[C@H](OC(=O)[C@H](Cc3ccccc3)NC(=O)c3nc(C)c(C)nc3C)[C@H]3COC(=O)[C@H]23)OCO4)cc(OC)c1OC,8.1 nM,12 nM,24.5 nM,11.3 nM,
CC[C@H](C)[C@H](N)C(=O)O[C@H]1c2cc3c(cc2[C@@H](c2cc(OC)c(OC)c(OC)c2)[C@H]2C(=O)OC[C@@H]21)OCO3,19.2 nM,11.1 nM,22.5 nM,17.3 nM,
COc1cc([C@@H]2c3cc4c(cc3[C@H](OC(=O)[C@@H](N)Cc3ccccc3)[C@H]3COC(=O)[C@H]23)OCO4)cc(OC)c1OC,3.8 nM,8.9 nM,27.3 nM,15.6 nM,
CC[C@H](C)[C@H](NC(=O)OC(C)(C)C)C(=O)O[C@H]1c2cc3c(cc2[C@@H](c2cc(OC)c(OC)c(OC)c2)[C@H]2C(=O)OC[C@@H]21)OCO3,223 nM,1120 nM,690 nM,626 nM,
COc1cc([C@@H]2c3cc4c(cc3[C@H](OC(=O)[C@H](Cc3ccccc3)NC(=O)OC(C)(C)C)[C@H]3COC(=O)[C@H]23)OCO4)cc(OC)c1OC,30.2 nM,78.4 nM,87.1 nM,95.3 nM,
COc1cc([C@@H]2c3cc4c(cc3[C@H](OC(=O)[C@H](CC(C)C)NC(=O)OC(C)(C)C)[C@H]3COC(=O)[C@H]23)OCO4)cc(OC)c1OC,130 nM,180 nM,106 nM,110 nM,
COc1cc([C@@H]2c3cc4c(cc3[C@H](OC(=O)[C@@H]3CCCN3)[C@H]3COC(=O)[C@H]23)OCO4)cc(OC)c1OC,2.8 nM,6.2 nM,12.8 nM,7.6 nM,
COc1cc([C@@H]2c3cc4c(cc3[C@H](OC(=O)CN(C)C(=O)c3nc(C)c(C)nc3C)[C@H]3COC(=O)[C@H]23)OCO4)cc(OC)c1OC,20.1 nM,15.8 nM,58.3 nM,66.4 nM,
COc1cc([C@@H]2c3cc4c(cc3[C@H](OC(=O)[C@H](C)NC(=O)OC(C)(C)C)[C@H]3COC(=O)[C@H]23)OCO4)cc(OC)c1OC,17.3 nM,110 nM,81.5 nM,107 nM,
COc1cccc2c1C(=O)c1c(O)c3c(c(O)c1C2=O)C[C@@](O)(C(=O)CO)C[C@@H]3O[C@H]1C[C@H](N)[C@H](O)[C@H](C)O1 [DOXORUBICIN],228 nM,53.3 nM,,,
COc1cc([C@@H]2c3cc4c(cc3[C@H](OC(=O)[C@H](C)N)[C@H]3COC(=O)[C@H]23)OCO4)cc(OC)c1OC,13.6 nM,10.8 nM,17.8 nM,18.5 nM,
COc1cc([C@@H]2c3cc4c(cc3[C@H](OC(=O)[C@H](CC(C)C)NC(=O)c3nc(C)c(C)nc3C)[C@H]3COC(=O)[C@H]23)OCO4)cc(OC)c1OC,62.4 nM,140 nM,89.1 nM,127 nM,
CNCC(=O)O[C@H]1c2cc3c(cc2[C@@H](c2cc(OC)c(OC)c(OC)c2)[C@H]2C(=O)OC[C@@H]21)OCO3,6.8 nM,9.6 nM,24.9 nM,17.5 nM,Activity (A549 [10]): Active; Activity (L02 [11]): Toxic; Activity (A549 [12]): Active; Activity (L02 [13]): Toxic; Activity (A549 [14]): Active; Activity (L02 [15]): Toxic
COc1cc([C@@H]2c3cc4c(cc3[C@H](OC(=O)CNC(=O)c3nc(C)c(C)nc3C)[C@H]3COC(=O)[C@H]23)OCO4)cc(OC)c1OC,9.3 nM,18.2 nM,11.7 nM,39.9 nM,Ratio IC50 (HepG2 [16]): 59; Ratio IC50 (HepG2 [17]): 4200
